Patent publication US8106055B2, “Substituted amide compounds” (Gruenenthal GmbH, priority 2007, dated 2012)

Experiments:
[1] = target: T1, serotonin (5-HT) reuptake (Rattus norvegicus, UniProt P31652); assay: Inhibition of serotonin (5HT) reuptake in synaptosomes from rat brain; format: biochemical; details: test concentration of 10 μM
T1 construct: synaptosomes are freshly isolated from areas of the rat brain; from tissue; host or cells: rat brain synaptosomes (P2 fraction)
Outline: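 Freshly isolated rat brain synaptosomes (P2 fraction) used for 5-HT reuptake. Test compound at 10 μM, activity given as % inhibition.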

[2] = target: T2, human bradykinin 1 receptor (B1R) (Homo sapiens, UniProt P46663); assay: Functional investigation on the human bradykinin 1 receptor (B1R), Ca2+ FLIPR assay in CHO K1 hB1R cells; format: cell-based; details: B1R antagonism human; test substance 10 μM; Ca2+ FLIPR, CHO K1 hB1R cells
T2 construct: expressed in transfected cells; host or cells: CHO K1 cells
T2 sequence (P46663 1-353): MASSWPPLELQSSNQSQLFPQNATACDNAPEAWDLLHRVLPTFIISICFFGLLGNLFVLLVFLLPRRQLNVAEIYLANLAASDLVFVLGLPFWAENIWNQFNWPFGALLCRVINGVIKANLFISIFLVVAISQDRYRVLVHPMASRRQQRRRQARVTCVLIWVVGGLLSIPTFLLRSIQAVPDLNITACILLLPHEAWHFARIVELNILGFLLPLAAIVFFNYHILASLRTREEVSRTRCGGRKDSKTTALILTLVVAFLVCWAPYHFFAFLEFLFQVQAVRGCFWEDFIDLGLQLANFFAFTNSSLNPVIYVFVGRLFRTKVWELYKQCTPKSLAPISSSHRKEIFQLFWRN
Outline: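 Cells were dye-loaded with Fluo-4 plus probenecid, then test substances added and Ca2+ influx compared with agonist control for % activation. After 10-20 min, EC80 agonist (Lys-Des-Arg9-bradykinin human; Des-Arg9-bradykinin rat) was applied; suppression gave % inhibition and IC50 values.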

T1 sequence (P31652 whole entry): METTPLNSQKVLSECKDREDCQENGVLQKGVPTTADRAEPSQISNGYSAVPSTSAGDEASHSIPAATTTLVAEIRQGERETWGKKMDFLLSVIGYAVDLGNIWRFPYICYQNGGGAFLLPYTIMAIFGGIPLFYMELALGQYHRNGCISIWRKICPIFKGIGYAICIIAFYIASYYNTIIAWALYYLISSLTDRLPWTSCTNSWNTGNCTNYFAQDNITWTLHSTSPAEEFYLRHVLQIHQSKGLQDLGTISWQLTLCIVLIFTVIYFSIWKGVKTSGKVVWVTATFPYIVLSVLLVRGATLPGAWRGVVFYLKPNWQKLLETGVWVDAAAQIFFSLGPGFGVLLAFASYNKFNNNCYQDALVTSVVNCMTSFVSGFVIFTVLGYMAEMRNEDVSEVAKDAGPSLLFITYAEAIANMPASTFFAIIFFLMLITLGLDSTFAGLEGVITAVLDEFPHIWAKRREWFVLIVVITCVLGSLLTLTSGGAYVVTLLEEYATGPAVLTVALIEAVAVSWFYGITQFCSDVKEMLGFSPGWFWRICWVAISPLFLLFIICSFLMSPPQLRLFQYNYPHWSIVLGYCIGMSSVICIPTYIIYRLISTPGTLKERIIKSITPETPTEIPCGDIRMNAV

CN(C)C(c1ccc(F)cc1)C1CCC(NC(=O)COCCN(C)S(=O)(=O)c2c(Cl)cccc2Cl)CC1 (stereo not drawn) [Example 363]
5-HT (inhibition of reuptake of serotonin, % inhibition) [1]: 73%
B1R Ant. h [10 μM] % Inhibition [2]: 80%

CN(C)C(c1cccc(F)c1)C1CCC(NC(=O)COCCN2CCN(S(=O)(=O)c3ccccc3)CC2)CC1 (stereo not drawn) [Example 364]
5-HT (inhibition of reuptake of serotonin, % inhibition) [1]: 95%
B1R Ant. h [10 μM] % Inhibition [2]: 0%

COc1cc(C)c(S(=O)(=O)N2CCC(OCC(=O)NC3CCC(C(c4ccc(F)cc4)N(C)C)CC3)C2)c(C)c1C (stereo not drawn) [Example 365]
5-HT (inhibition of reuptake of serotonin, % inhibition) [1]: 90%
B1R Ant. h [10 μM] % Inhibition [2]: 48%

COc1cc(C)c(S(=O)(=O)N2CCN(CCOCC(=O)NCC3CCC(C(c4ccc(F)cc4)N(C)C)CC3)CC2)c(C)c1C (stereo not drawn) [Example 366]
5-HT (inhibition of reuptake of serotonin, % inhibition) [1]: 96%
B1R Ant. h [10 μM] % Inhibition [2]: 55%

COc1ccc(S(=O)(=O)N2CCCCC2COCC(=O)NCC2CCC(C(c3ccc(Cl)cc3)N(C)C)CC2)cc1OC (stereo not drawn) [Example 367]
5-HT (inhibition of reuptake of serotonin, % inhibition) [1]: 89%
B1R Ant. h [10 μM] % Inhibition [2]: −9%

CN(C)C(c1ccc(F)cc1)C1CCC(CCNC(=O)COCCN(C)S(=O)(=O)c2cccc(C(F)(F)F)c2)CC1 (stereo not drawn) [Example 368]
5-HT (inhibition of reuptake of serotonin, % inhibition) [1]: 95%
B1R Ant. h [10 μM] % Inhibition [2]: 39%

CN(C)C(c1ccc(F)cc1)C1CCC(NC(=O)COC2CCN(S(=O)(=O)c3ccc(Cl)cc3)C2)CC1 (stereo not drawn) [Example 370]
5-HT (inhibition of reuptake of serotonin, % inhibition) [1]: 83%
B1R Ant. h [10 μM] % Inhibition [2]: −14%

Cc1ccc(S(=O)(=O)N2CCC(OCC(=O)NC3CCC(C(c4ccc(F)cc4)N(C)C)CC3)C2)cc1 (stereo not drawn) [Example 371]
5-HT (inhibition of reuptake of serotonin, % inhibition) [1]: 85%
B1R Ant. h [10 μM] % Inhibition [2]: 7%

COc1cc(C)c(S(=O)(=O)N(CCOCC(=O)NC2CCC(C(c3cccc(F)c3)N(C)C)CC2)Cc2ccccc2)c(C)c1 (stereo not drawn) [Example 372]
5-HT (inhibition of reuptake of serotonin, % inhibition) [1]: 89%
B1R Ant. h [10 μM] % Inhibition [2]: 65%

COc1ccc(S(=O)(=O)N2Cc3ccccc3CC2COCC(=O)NCC2CCC(C(CCc3ccccc3)N(C)C)CC2)cc1 (stereo not drawn) [Example 373]
5-HT (inhibition of reuptake of serotonin, % inhibition) [1]: 85%
B1R Ant. h [10 μM] % Inhibition [2]: 98%

COc1ccc(S(=O)(=O)N2Cc3ccccc3CC2COCC(=O)NCCC2CCC(C(c3ccc(Cl)cc3)N(C)C)CC2)cc1 (stereo not drawn) [Example 374]
5-HT (inhibition of reuptake of serotonin, % inhibition) [1]: 90%
B1R Ant. h [10 μM] % Inhibition [2]: 18%

CN(C)C(c1ccc(Cl)cc1)C1CCC(CCNC(=O)COC2CCN(S(=O)(=O)c3ccccc3)C2)CC1 (stereo not drawn) [Example 375]
5-HT (inhibition of reuptake of serotonin, % inhibition) [1]: 88%
B1R Ant. h [10 μM] % Inhibition [2]: 2%

CN(C)C(c1cccc(F)c1)C1CCC(CCNC(=O)COC2CCN(S(=O)(=O)c3ccccc3)C2)CC1 (stereo not drawn) [Example 376]
5-HT (inhibition of reuptake of serotonin, % inhibition) [1]: 88%
B1R Ant. h [10 μM] % Inhibition [2]: −17%

CN(C)C(c1ccc(F)cc1)C1CCC(CCNC(=O)COCCN(C)S(=O)(=O)c2ccc(Cl)cc2)CC1 (stereo not drawn) [Example 377]
5-HT (inhibition of reuptake of serotonin, % inhibition) [1]: 88%
B1R Ant. h [10 μM] % Inhibition [2]: 28%

COc1cc(C)c(S(=O)(=O)N(C)CCOCC(=O)NCCC2CCC(C(c3ccc(Cl)cc3)N(C)C)CC2)c(C)c1 (stereo not drawn) [Example 378]
5-HT (inhibition of reuptake of serotonin, % inhibition) [1]: 83%
B1R Ant. h [10 μM] % Inhibition [2]: 104%

COc1ccc(S(=O)(=O)N(C)CCOCC(=O)NCC2CCC(C(c3ccc(Cl)cc3)N(C)C)CC2)cc1OC (stereo not drawn) [Example 379]
5-HT (inhibition of reuptake of serotonin, % inhibition) [1]: 81%
B1R Ant. h [10 μM] % Inhibition [2]: −5%

CN(C)C(c1ccc(F)cc1)C1CCC(NC(=O)COC2CCN(S(=O)(=O)c3ccc(F)cc3)C2)CC1 (stereo not drawn) [Example 381]
5-HT (inhibition of reuptake of serotonin, % inhibition) [1]: 79%
B1R Ant. h [10 μM] % Inhibition [2]: −19%

CN(C)C(c1ccc(F)cc1)C1CCC(NC(=O)COCCN(C)S(=O)(=O)c2c(Cl)cc(Cl)cc2Cl)CC1 (stereo not drawn) [Example 382]
5-HT (inhibition of reuptake of serotonin, % inhibition) [1]: 96%
B1R Ant. h [10 μM] % Inhibition [2]: 103%

COc1ccc(S(=O)(=O)N2CCCCC2CCOCC(=O)NCCC2CCC(C(c3ccc(Cl)cc3)N(C)C)CC2)cc1 (stereo not drawn) [Example 383]
5-HT (inhibition of reuptake of serotonin, % inhibition) [1]: 94%
B1R Ant. h [10 μM] % Inhibition [2]: 77%

CN(C)C(c1ccc(Cl)cc1)C1CCC(CNC(=O)COC2CCN(S(=O)(=O)c3ccc(Cl)cc3)C2)CC1 (stereo not drawn) [Example 384]
5-HT (inhibition of reuptake of serotonin, % inhibition) [1]: 87%
B1R Ant. h [10 μM] % Inhibition [2]: 31%

CN(C)C(c1ccc(F)cc1)C1CCC(CCNC(=O)COCCN(C)S(=O)(=O)c2c(Cl)cc(Cl)cc2Cl)CC1 (stereo not drawn) [Example 386]
5-HT (inhibition of reuptake of serotonin, % inhibition) [1]: 98%
B1R Ant. h [10 μM] % Inhibition [2]: 104%
